Measured values taken from paper PMC7403315, “Cyclic peptide FXII inhibitor provides safe anticoagulation in a thrombosis model and in artificial lungs” (Nature Communications, 2020).
Where “and” joins values, the source holds several entries; their conditions need not be identical. Identical values can stand only once. Residues, ends and D or L forms follow the SMILES beside them.

Assays:
Mouse α-FXIIa = molecular target: T1, Mouse α-FXIIa (Mus musculus, UniProt Q80YC5); experiment: FXIIa protease inhibition assay with fluorogenic substrate Boc-Gln-Gly-Arg-AMC; assay type: biochemical; settings: purified peptide without coumarin label; read-out: Ki mouse FXIIa
T1 construct: Mouse α-FXIIa; purchased Molecular Innovations MFXIIA
T1 sequence (Q80YC5 355-597 limits assumed): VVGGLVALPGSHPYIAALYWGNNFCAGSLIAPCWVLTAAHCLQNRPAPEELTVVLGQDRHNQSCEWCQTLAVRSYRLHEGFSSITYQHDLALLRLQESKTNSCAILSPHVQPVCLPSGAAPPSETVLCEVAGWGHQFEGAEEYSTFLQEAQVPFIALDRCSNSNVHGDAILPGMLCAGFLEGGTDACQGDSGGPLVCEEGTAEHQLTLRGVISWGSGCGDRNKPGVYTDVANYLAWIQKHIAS
T1 sequence (Q80YC5 20-354 limits assumed): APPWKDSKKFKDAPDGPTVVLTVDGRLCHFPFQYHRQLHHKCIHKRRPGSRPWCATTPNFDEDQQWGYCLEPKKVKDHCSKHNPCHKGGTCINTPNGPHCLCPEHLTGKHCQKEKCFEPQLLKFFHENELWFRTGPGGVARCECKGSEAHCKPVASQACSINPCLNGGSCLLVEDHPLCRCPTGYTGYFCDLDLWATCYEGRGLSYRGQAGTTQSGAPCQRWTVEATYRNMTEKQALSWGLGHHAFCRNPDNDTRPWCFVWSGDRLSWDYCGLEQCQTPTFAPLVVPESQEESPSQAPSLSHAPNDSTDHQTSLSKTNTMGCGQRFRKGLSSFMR
Procedure: (§1) In order to test the inhibitory activity of peptides without prior purification, we developed the following method. […] After solid-phase peptide synthesis, cleavage, and ether precipitation, the peptides were chemically cyclized and their Ki values were determined in a FXIIa activity assay using a fluorogenic substrate.
(§2) Protease inhibition assays
(§3) The inhibitory activity of peptides was determined by measuring the residual protease activity with a fluorogenic substrate. The assay was performed in buffer containing 10 mM Tris-Cl, pH […]
(§4) 1% (v/v) DMSO in a volume of 150 µl. FXIIa activity was measured with the fluorogenic substrate Boc-Gln-Gly-Arg-AMC (Bachem) at a final concentration of 50 µM. Mouse α-FXIIa (Molecular Innovations cat # MFXIIA) and human β-FXIIa (Molecular Innovations cat # HFXIIAB) were used at final concentrations of 0.4 nM. The reaction was pipetted as follows: 50 µl of bicyclic peptide in assay buffer were added to 50 µl of FXIIa in assay buffer and incubated for 10 minutes at 25°C before 50 µl of 150 µM fluorogenic substrate in assay buffer were added to measure the residual protease activity with an Infinite M200Pro fluorescence plate reader (excitation at 368 nm, emission at 467 nm; Tecan) for a period of 30 minutes with a read every minute at 25°C. The Tecan software i-control (version 1.1) was used for data analysis. Stock solutions of 1 mM bicyclic peptide were prepared by either dissolving the unpurified cyclization reaction with water or by dissolving purified and lyophilized peptide in water. The bicyclic peptides were serially diluted two-fold using assay buffer. Sigmoidal curves were fitted to the data using the following dose response equation (1), wherein x = peptide concentration, y = % protease activity, and p = Hill slope. IC50 values were derived from the fitted curve.
(§5) The inhibition constants (Ki) were calculated according to the equation of Cheng and Prusoff, Ki = IC50/(1+([S]0/Km), wherein IC50 is the functional strength of the inhibitor, [S]0 is the total substrate concentration, and Km is the Michaelis-Menten constant. […]
(§6) the substrate Boc-Gln-Gly-Arg-AMC. […]

human β-FXIIa = molecular target: T2, human β-FXIIa (Homo sapiens, UniProt P00748); experiment: as above; assay type: biochemical; settings: for Ki: purified peptide without coumarin label, read-out: Ki human FXIIa
T2 construct: human β-FXIIa (Molecular Innovations cat #); purchased Molecular Innovations HFXIIAB; host or cells: human blood
Procedure: as §1, §2, §3, §4, §5, §6

[1] = Plasma stability assay (residual FXIIa inhibitory activity after plasma incubation); assay type: in vitro ADME, human; settings: human, plasma
Procedure: Peptide (2 μl of 2 mM in H2O) was added to 398 μl of citrated human plasma (Innovative Research) to obtain a final peptide concentration of 10 μM. The mixture was incubated in a water bath at 37 °C. At different time points (0, 0.5, 1, 2, 4, 8, 12, 24, 48, and 96 h), samples of 30 μl were removed, diluted to 200 μl with aqueous buffer (10 mM Tris-HCl, pH 7.4, 150 mM NaCl, 10 mM MgCl2, 1 mM CaCl2), and incubated for 20 min at 65 °C to inactivate plasma proteases. The peptide/plasma samples were stored at −20 °C until the residual inhibitory activity of the peptides was measured in a FXIIa inhibition assay. […] IC50 values were derived from the fitted curve using an equation described in the Supplementary Methods. Residual inhibition in % was calculated using the equation IC50,0h/IC50,xh*100, wherein IC50,0h is the functional strength of the inhibitor at time point 0 and IC50,xh the functional strength of the inhibitor after one of the different plasma incubation periods mentioned above.

[2] = inhibitor 0.390625 nM, 0.000390625 µM
[3] = inhibitor 0.390625 nM, read-out: Residual activity of human FXIIa
[4] = inhibitor 0.78125 nM, 0.00078125 µM
[5] = inhibitor 0.78125 nM, read-out: Residual activity of human FXIIa
[6] = inhibitor 1.5625 nM, 0.0015625 µM
[7] = inhibitor 1.5625 nM, read-out: Residual activity of human FXIIa
[8] = inhibitor 3.125 nM, 0.003125 µM
[9] = inhibitor 3.125 nM, read-out: Residual activity of human FXIIa
[10] = inhibitor 6.25 nM, read-out: Residual activity of human FXIIa
[11] = inhibitor 12.5 nM, read-out: Residual activity of human FXIIa

T2 sequence (P00748 373-615 limits assumed, other chains not shown): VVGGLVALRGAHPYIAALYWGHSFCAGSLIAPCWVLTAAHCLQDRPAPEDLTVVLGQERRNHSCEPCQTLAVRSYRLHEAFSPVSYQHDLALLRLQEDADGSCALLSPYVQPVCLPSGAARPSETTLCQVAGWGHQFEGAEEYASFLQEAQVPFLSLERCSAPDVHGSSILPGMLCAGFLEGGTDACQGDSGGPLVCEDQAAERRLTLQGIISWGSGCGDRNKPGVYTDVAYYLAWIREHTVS

Structure (SMILES)	Ki (Mouse α-FXIIa) [nM]	Residual activity of human FXIIa (human β-FXIIa; [2]) [%]	remaining activity at 0.000390625 µM (human β-FXIIa; [3]) [%]	Residual activity of human FXIIa (human β-FXIIa; [4]) [%]	remaining activity at 0.00078125 µM (human β-FXIIa; [5]) [%]	Residual activity of human FXIIa (human β-FXIIa; [6]) [%]	remaining activity at 0.0015625 µM (human β-FXIIa; [7]) [%]	Residual activity of human FXIIa (human β-FXIIa; [8]) [%]	remaining activity at 0.003125 µM (human β-FXIIa; [9]) [%]	Residual activity of human FXIIa (human β-FXIIa; inhibitor 6.25 nM, 0.00625 µM) [%]	remaining activity at 0.00625 µM (human β-FXIIa; [10]) [%]	Residual activity of human FXIIa (human β-FXIIa; inhibitor 12.5 nM, 0.0125 µM) [%]	remaining activity at 0.0125 µM (human β-FXIIa; [11]) [%]	Residual activity of human FXIIa (human β-FXIIa; inhibitor 50 nM, 0.05 µM)	Residual activity of human FXIIa (human β-FXIIa; inhibitor 100 nM, 0.1 µM)	Residual activity of human FXIIa (human β-FXIIa; inhibitor 200 nM, 0.2 µM)	Residual activity of human FXIIa (human β-FXIIa; inhibitor 400 nM, 0.4 µM)	Ki (human β-FXIIa) [nM]	further results
CC(C)C[C@@H]1NC(=O)[C@H](CCC(N)=O)NC(=O)[C@H](Cc2c[nH]cn2)NC(=O)[C@@H]2CSCCC(=O)N3CN(CN(C3)C(=O)CCSC[C@H](NC(=O)[C@@H](N)CCCNC(=N)N)C(=O)N[C@@H](Cc3ccccc3)C(=O)N[C@@H](CCCNC(=N)N)C(=O)N[C@@H](CC(C)C)C(=O)N3CCC[C@H]3C(=O)N2)C(=O)CCSC[C@@H](C(=O)N[C@@H](CCCNC(=N)N)C(N)=O)NC(=O)[C@H](CCCNC(=N)N)NC1=O [FXII851] (HELM PEPTIDE1{R.C.F.R.L.P.C.H.Q.L.R.C.R.[am]}|CHEM1{[O=C(CC[*:1])N1CN(C(=O)CC[*:2])CN(C(=O)CC[*:3])C1]}$PEPTIDE1,CHEM1,2:R3-1:R1|PEPTIDE1,CHEM1,7:R3-1:R2|PEPTIDE1,CHEM1,12:R3-1:R3$$$V2.0)	36	96.2983	93.8	91.5155	90.5	83.5319	84.1	70.2169	72.3	54.9417	56.8	37.7877	38.2	12.5321%	6.25%	1.167% and 2.638%	1.099%	6.5	Residual activity of human FXIIa (human β-FXIIa; inhibitor 25 nM, […]): 23.2045%; remaining activity at […] (human β-FXIIa; inhibitor 25 nM, read-out: Residual activity of human FXIIa): 25%; remaining activity at 0.05 µM (human β-FXIIa; inhibitor 50 nM, read-out: Residual activity of human FXIIa): 14.1%; remaining activity at 0.1 µM (human β-FXIIa; inhibitor 100 nM, read-out: Residual activity of human FXIIa): 6.97%; remaining activity at 0.4 µM (human β-FXIIa; inhibitor 400 nM, read-out: Residual activity of human FXIIa): 1.94%
CC(C)C[C@@H]1NC(=O)[C@H](CCC(N)=O)NC(=O)[C@H](Cc2c[nH]cn2)NC(=O)[C@@H]2CSCCC(=O)N3CN(CN(C3)C(=O)CCSC[C@H](NC(=O)[C@@H](CO)NC(=O)[C@H](N)CCCNC(=N)N)C(=O)N[C@@H](Cc3ccc(F)cc3)C(=O)N[C@@H](CCCNC(=N)N)C(=O)N[C@@H](CC(C)C)C(=O)N3CCC[C@H]3C(=O)N2)C(=O)CCSC[C@@H](C(=O)N[C@@H](CCCNC(=N)N)C(N)=O)NC(=O)[C@H](CCCNC(=N)N)NC1=O [Arg11βhArg reverted] (HELM PEPTIDE1{[dR].[dS].C.[O=C([C@H](Cc1ccc(F)cc1)N[*:1])[*:2]].R.L.P.C.H.Q.L.R.C.R.[am]}|CHEM1{[O=C(CC[*:1])N1CN(C(=O)CC[*:2])CN(C(=O)CC[*:3])C1]}$PEPTIDE1,CHEM1,3:R3-1:R1|PEPTIDE1,CHEM1,8:R3-1:R2|PEPTIDE1,CHEM1,13:R3-1:R3$$$V2.0)	0.9 ± 0.4	–	–	–	–	–	–	–	–	–	–	–	–	–	–	–	–	0.51 ± 0.1	–
CC(C)C[C@@H]1NC(=O)[C@H](CCC(N)=O)NC(=O)[C@H](Cc2c[nH]cn2)NC(=O)[C@@H]2CSCCC(=O)N3CN(CN(C3)C(=O)CCSC[C@H](NC(=O)[C@@H](CO)NC(=O)[C@H](N)CCCNC(=N)N)C(=O)N[C@@H](Cc3ccccc3)C(=O)N[C@@H](CCCNC(=N)N)C(=O)N[C@@H](CC(C)C)C(=O)N3CCC[C@H]3C(=O)N2)C(=O)CCSC[C@@H](C(=O)N[C@@H](CCCNC(=N)N)C(N)=O)NC(=O)C[C@H](CCCNC(=N)N)NC1=O [Phe3Phe4F reverted] (HELM PEPTIDE1{[dR].[dS].C.F.R.L.P.C.H.Q.L.[N=C(N)NCCC[C@@H](CC(=O)[*:2])N[*:1]].C.R.[am]}|CHEM1{[O=C(CC[*:1])N1CN(C(=O)CC[*:2])CN(C(=O)CC[*:3])C1]}$PEPTIDE1,CHEM1,3:R3-1:R1|PEPTIDE1,CHEM1,8:R3-1:R2|PEPTIDE1,CHEM1,13:R3-1:R3$$$V2.0)	1.9 ± 0.5	–	–	–	–	–	–	–	–	–	–	–	–	–	–	–	–	0.7 ± 0.06	–
CC(C)C[C@@H]1NC(=O)[C@H](CCC(N)=O)NC(=O)[C@H](CCCNC(=N)N)NC(=O)[C@@H]2CSCCC(=O)N3CN(CN(C3)C(=O)CCSC[C@H](NC(=O)[C@@H](CO)NC(=O)[C@H](N)CCCNC(=N)N)C(=O)N[C@@H](Cc3ccccc3)C(=O)N[C@@H](CCCNC(=N)N)C(=O)N[C@@H](CC(C)C)C(=O)N3CCC[C@H]3C(=O)N2)C(=O)CCSC[C@@H](C(=O)N[C@@H](CCCNC(=N)N)C(N)=O)NC(=O)[C@H](CCCNC(=N)N)NC1=O [FXII850] (HELM PEPTIDE1{[dR].[dS].C.F.R.L.P.C.R.Q.L.R.C.R.[am]}|CHEM1{[O=C(CC[*:1])N1CN(C(=O)CC[*:2])CN(C(=O)CC[*:3])C1]}$PEPTIDE1,CHEM1,3:R3-1:R1|PEPTIDE1,CHEM1,8:R3-1:R2|PEPTIDE1,CHEM1,13:R3-1:R3$$$V2.0)	35	94.4127	97.1	86.6748	93.2	72.1433	82.9	57.4159	73.8	39.85	56.3	25.3131	37.4	12.7513% and 5.338%	6.402% and 0.6734%	3.022% and 0%	1.539% and 0%	5	half-life at 10 μM [1]: 1110 min
